Reference: patent US9464064B2, “HCV helicase inhibitors and methods of use thereof” (University of Kansas, priority 2011, dated 2016)
Where two headings read alike, the source gives them in different places.

Target: T1, HCV NS3 helicase NS3h_1b(con1) (Hepatitis C virus genotype 1b, UniProt Q9WMX2)
T1 construct: truncated C-terminally His-tagged NS3 proteins lacking the N-terminal protease, called NS3h; His-tag (C); made in house
Test: biochemical
Format: biochemical, hepatitis C virus genotype 1b(con1)
Description: All oligonucleotides were purchased from Integrated DNA Technologies (IDT, Coralville, Iowa). The partially duplex DNA substrates used in MBHAs consisted of a helicase substrate forming 25 base pairs and consists of a 45-mer bottom strand 5′-GCTCCCCGTTCATCGATTGGGGAGC(T)20-3′ (SEQ ID NO:1) and the 25-mer HCV top strand 5′-Cy5-GCTCCCCAATCGATGAACGGGGAGC-IBRQ-3′ (SEQ ID NO:2). The 19 base pair RNA substrate used in MBHAs was composed of a 39 nucleotide long bottom strand 5′-AGU GCC UUG ACG AUA CAG C(U)20-3′ (SEQ ID NO:3) and the 24 nucleotide long top strand 5′-Tye^665-AGUGCGCUGUAUCGUCAAGGCACU-IBRQSp-3′ (SEQ ID NO:4). Underlined areas denote hairpin-forming regions. DNA and RNA substrates were annealed and purified as described previously (Belon & Frick (2008) BioTechniques 45:433-40, 442).
The cloning, expression, and purification of His-tagged recombinant HCV NS3 protein have been described previously (Lam, et al. (20030 J. Virol. 77:3950-61; Heck, et al. (2008) Antimicrob. Agents Chemother. 52:1901-11; Frick et al. (2010) Methods Mol. Biol. 587:223-233; Belon, et al. & Frick (2009) J. Mol. Biol. 388:851-864).
All molecular beacon-based helicase assays (MBHAs) were performed according to known methods (Belon & Frick (2008) supra; Belon & Frick (2009) supra). […] In each flat, black 384-well plate, 56 compounds were tested, in triplicate, along with three negative controls (DMSO only), three positive controls (500 nM dT20), and two wells with no enzyme. Fluorescence was read before ATP (F0) addition and 30 minutes after ATP was added to 1 mM (F30) using a Tecan Infinite M200 fluorescence microplate reader with excitation and emission wavelengths set to 643 and 670 nm, respectively. Percent inhibition was calculated with equation 1, and compound interference in the MBHA was calculated with equation 2.
To monitor helicase reaction kinetics and to calculate IC50 values, MBHAs were performed in 60 μL in white ½ area 96-well plates and measured in a Thermo Varioscan Multimode reader (Thermo Scientific) using the 643 nm excitation wavelength and 667 emission wavelengths. Reactions were again performed by first incubating all components except for ATP for two minutes, then initiated by injecting in 1/10 volume of ATP such that the final concentration of all components was as noted above. Conditions were as described above except that 5% v/v DMSO was present in each assay. Initial reaction velocities were calculated by fitting first-order decay equation to data obtained after ATP addition and calculating an initial velocity form the resulting amplitude and rate constant.
[formula] where, v0 is the velocity observed in DMSO-only controls inhibition, h is the Hillslope coefficient, [I] is the concentration of test compound.

[1] = genotype 1b (con1), read-out: Target Potency MBHA (IC50 avg., μM) 1b (con1)
[2] = MBHA, DNA unwinding, mean ± SD of three titrations, read-out: Helicase IC50
[3] = standard HCV helicase MBHA (Table 9), read-out: DNA Unwinding IC50
[4] = DNA Unwinding IC50, standard HCV helicase MBHA (Table 9)
[5] = Helicase IC50, MBHA, DNA unwinding, mean ± SD of three titrations
[6] = Target Potency MBHA (IC50 avg., μM) 1b (con1), genotype 1b (con1)

T1 sequence (Q9WMX2 1192-1657): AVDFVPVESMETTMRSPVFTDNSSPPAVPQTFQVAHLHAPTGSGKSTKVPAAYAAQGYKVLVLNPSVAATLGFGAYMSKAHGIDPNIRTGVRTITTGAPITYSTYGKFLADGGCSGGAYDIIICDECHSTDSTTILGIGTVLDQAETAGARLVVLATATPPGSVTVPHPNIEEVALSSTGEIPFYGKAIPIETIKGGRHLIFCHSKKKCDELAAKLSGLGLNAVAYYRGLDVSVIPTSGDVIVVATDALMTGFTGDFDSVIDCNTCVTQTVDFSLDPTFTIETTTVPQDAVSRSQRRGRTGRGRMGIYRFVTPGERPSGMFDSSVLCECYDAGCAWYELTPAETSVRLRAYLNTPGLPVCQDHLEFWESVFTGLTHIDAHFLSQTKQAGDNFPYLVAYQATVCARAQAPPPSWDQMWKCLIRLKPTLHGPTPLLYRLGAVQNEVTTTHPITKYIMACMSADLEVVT

Structure (SMILES) | IC50 [1] | IC50 [2] | IC50 [3] | IC50 [4] | IC50 [5] | IC50 [6]
Cc1ccc2nc(-c3ccc4nc(-c5ccc(NC(=O)c6ccc7ncoc7c6)cc5)sc4c3)sc2c1S(=O)(=O)O | 3.6 ± 1 µM |  |  |  |  | 
Cc1ccc2nc(-c3ccc4nc(-c5ccc(NS(=O)(=O)c6ccc(C(F)(F)F)cc6)cc5)sc4c3)sc2c1S(=O)(=O)O | 32 ± 16 µM |  |  |  |  | 
Cc1ccc2nc(-c3ccc(NC(=O)c4ccc(C(F)(F)F)cc4)cc3)sc2c1S(=O)(=O)O | > 100 µM |  |  |  |  | 
Cc1ccc2nc(-c3ccc(NC(=O)c4ccc(N)cc4)cc3)sc2c1S(=O)(=O)O | 69 ± 26 µM |  |  |  |  | 
Cc1ccc2nc(-c3ccc(NC(=O)c4ccc(NS(=O)(=O)c5ccccc5)cc4)cc3)sc2c1S(=O)(=O)O | > 100 µM |  |  |  |  | 
Cc1ccc2nc(-c3ccc(NC(=S)Nc4ccccc4Br)cc3)sc2c1 | > 100 µM |  |  |  |  | 
Cc1ccc2nc(-c3ccc4nc(NC(=O)c5ccc6ncoc6c5)sc4c3)sc2c1 | 60 ± 6.1 µM |  |  |  |  | 
Cc1ccc2nc(-c3ccc4nc(-c5ccc(NC(=O)c6ccccc6)cc5)sc4c3)sc2c1S(=O)(=O)O [Compound 5, 2′-(4-benzamidophenyl)-6-methyl-[2,6′-bibenzo[d]thiazole]-7-sulfonic acid] | 10.7 ± 1.5 µM | 11 ± 1.5 µM | 11 ± 2 µM |  |  | 
COc1ccc(C(=O)Nc2ccc(-c3nc4ccc(-c5nc6ccc(C)c(S(=O)(=O)O)c6s5)cc4s3)cc2)cc1 [Compound 8, 2′-(4-(4-methoxybenzamido)phenyl)-6-methyl-[2,6′-bibenzo[d]thiazole]-7-sulfonic acid] |  |  |  | 10 ± 3 µM | 10 ± 2.6 µM | 10 ± 2.6 µM
COC(=O)c1ccc(C(=O)Nc2ccc(-c3nc4ccc(-c5nc6ccc(C)c(S(=O)(=O)O)c6s5)cc4s3)cc2)cc1 [Compound 9, 2′-(4-(4-(methoxycarbonyl)benzamido)phenyl)-6-methyl-[2,6′-bibenzo[d]thiazole]-7-sulfonic acid] | 9.7 ± 4.6 µM | 9.7 ± 4.6 µM | 10 ± 5 µM |  |  | 
Cc1ccc2nc(-c3ccc4nc(-c5ccc(NC(=O)c6ccc(Cl)cc6)cc5)sc4c3)sc2c1S(=O)(=O)O [Compound 10, 2′-(4-(4-chlorobenzamido)phenyl)-6-methyl-[2,6′-bibenzo[d]thiazole]-7-sulfonic acid] |  |  |  | 3 µM | 3.4 ± 0.3 µM | 3.4 ± 0.3 µM
Cc1ccc(C(=O)Nc2ccc(-c3nc4ccc(-c5nc6ccc(C)c(S(=O)(=O)O)c6s5)cc4s3)cc2)cc1 [Compound 11, 6-methyl-2′-(4-(4-methylbenzamido)phenyl)-[2,6′-bibenzo[d]thiazole]-7-sulfonic acid] | 3.3 ± 0.3 µM | 3.3 ± 0.3 µM | 3 µM |  |  | 
Cc1ccc2nc(-c3ccc4nc(-c5ccc(NC(=O)c6ccc(N(C)C)cc6)cc5)sc4c3)sc2c1S(=O)(=O)O [Compound 14, 2′-(4-(4-(dimethylamino)benzamido)phenyl)-6-methyl-[2,6′-bibenzo[d]thiazole]-7-sulfonic acid] | 11 ± 6.7 µM | 11 ± 6.7 µM | 11 ± 7 µM |  |  | 
Cc1ccc2nc(-c3ccc4nc(-c5ccc(NC(=O)c6ccc(NC(=O)OCC7c8ccccc8-c8ccccc87)cc6)cc5)sc4c3)sc2c1S(=O)(=O)O [Compound 16, 2′-(4-(4-((((9H-fluoren-9-yl)methoxy)carbonyl)amino)benzamido)phenyl)-6-methyl-[2,6′-bibenzo[d]thiazole]-7-sulfonic acid] | 5.4 ± 1 µM | 5.4 ± 1 µM | 5 ± 1 µM |  |  | 
Cc1ccc2nc(-c3ccc4nc(-c5ccc(NC(=O)c6ccccc6C(F)(F)F)cc5)sc4c3)sc2c1S(=O)(=O)O [Compound 19, 6-methyl-2′-(4-(2-(trifluoromethyl)benzamido)phenyl)-[2,6′-bibenzo[d]thiazole]-7-sulfonic acid] | 14.1 ± 1 µM | 14 ± 1 µM | 14 ± 1 µM |  |  | 
Cc1ccc2nc(-c3ccc4nc(-c5ccc(NC(=O)c6cccc(C(F)(F)F)c6)cc5)sc4c3)sc2c1S(=O)(=O)O [Compound 20, 6-methyl-2′-(4-(3-(trifluoromethyl)benzamido)phenyl)-[2,6′-bibenzo[d]thiazole]-7-sulfonic acid] | 19.7 ± 12 µM | 20 ± 12 µM |  |  |  | 
Cc1ccc2nc(-c3ccc4nc(-c5ccc(NC(=O)c6c(F)cccc6C(F)(F)F)cc5)sc4c3)sc2c1S(=O)(=O)O [Compound 21, 2′-(4-(2-fluoro-6-(trifluoromethyl)benzamido)phenyl)-6-methyl-[2,6′-bibenzo[d]thiazole]-7-sulfonic acid] | 16.8 ± 6 µM | 17 ± 6 µM | 17 ± 6 µM |  |  | 
Cc1ccc2nc(-c3ccc4nc(-c5ccc(NC(=O)c6cccc(C(F)(F)F)c6F)cc5)sc4c3)sc2c1S(=O)(=O)O [Compound 22, 2′-(4-(2-fluoro-3-(trifluoromethyl)benzamido)phenyl)-6-methyl-[2,6′-bibenzo[d]thiazole]-7-sulfonic acid] | 9.2 ± 3 µM | 9.2 ± 3 µM | 9 ± 3 µM |  |  | 
Cc1ccc2nc(-c3ccc4nc(-c5ccc(NC(=O)c6ccc(C(F)(F)F)c(F)c6)cc5)sc4c3)sc2c1S(=O)(=O)O [Compound 23, 2′-(4-(3-fluoro-4-(trifluoromethyl)benzamido)phenyl)-6-methyl-[2,6′-bibenzo[d]thiazole]-7-sulfonic acid] | 17.4 ± 17 µM | 17 ± 17 µM | 17 ± 17 µM |  |  | 
Cc1ccc2nc(-c3ccc4nc(-c5ccc(NC(=O)c6cc(F)ccc6C(F)(F)F)cc5)sc4c3)sc2c1S(=O)(=O)O [Compound 26, 2′-(4-(5-fluoro-2-(trifluoromethyl)benzamido)phenyl)-6-methyl-[2,6′-bibenzo[d]thiazole]-7-sulfonic acid] | 19 ± 15 µM | 19 ± 15 µM | 19 ± 15 µM |  |  | 
Cc1ccc2nc(-c3ccc4nc(-c5ccc(NC(=O)c6cc(F)cc(C(F)(F)F)c6)cc5)sc4c3)sc2c1S(=O)(=O)O [Compound 27, 2′-(4-(3-fluoro-5-(trifluoromethyl)benzamido)phenyl)-6-methyl-[2,6′-bibenzo[d]thiazole]-7-sulfonic acid] | 28.4 ± 7 µM | 28 ± 7 µM |  |  |  | 
Cc1ccc(NC(=O)Nc2ccc(-c3nc4ccc(-c5nc6ccc(C)c(S(=O)(=O)O)c6s5)cc4s3)cc2)cc1 [Compound 28, 6-methyl-2′-(4-(3-(p-tolyl)ureido)phenyl)-[2,6′-bibenzo[d]thiazole]-7-sulfonic acid] | 5.3 ± 0.9 µM | 5.3 ± 0.9 µM | 5 ± 1 µM |  |  | 
COc1ccc(S(=O)(=O)Nc2ccc(-c3nc4ccc(-c5nc6ccc(C)c(S(=O)(=O)O)c6s5)cc4s3)cc2)cc1 [Compound 29, 2′-(4-(4-methoxyphenylsulfonamido)phenyl)-6-methyl-[2,6′-bibenzo[d]thiazole]-7-sulfonic acid] | 24.4 ± 2.2 µM | 24 ± 2.2 µM | 24 ± 2 µM |  |  | 
CC(=O)Nc1ccc(-c2nc3ccc(-c4nc5ccc(C)c(S(=O)(=O)O)c5s4)cc3s2)cc1 [Compound 30, 2′-(4-acetamidophenyl)-6-methyl-[2,6′-bibenzo[d]thiazole]-7-sulfonic acid] | > 100 µM | > 100 µM | 227 ± 107 µM |  |  | 
Cc1ccc2nc(-c3ccc4nc(-c5ccc(N(C)C(=O)c6ccc7ccccc7c6)cc5)sc4c3)sc2c1S(=O)(=O)O [Compound 34, 6-methyl-2′-(4-(N-methyl-2-naphthamido)phenyl)-[2,6′-bibenzo[d]thiazole]-7-sulfonic acid] | 14.4 ± 0.04 µM | 14 ± 0.1 µM | 14 µM |  |  | 
Cc1ccc2nc(-c3ccc4nc(-c5ccc(NC(=O)c6ccc7nc(-c8ccc(NC(=O)OCC9c%10ccccc%10-c%10ccccc%109)cc8)sc7c6)cc5)sc4c3)sc2c1S(=O)(=O)O.N [Compound 36] | 4 ± 2.4 µM | 4 ± 2.4 µM | 4 ± 2 µM |  |  | 
Cc1ccc2nc(-c3ccc(NC(=O)c4ccc(NC(=O)c5ccccc5)cc4)cc3)sc2c1S(=O)(=O)O.N [Compound 40] | 81.4 ± 22 µM |  | 81 ± 22 µM |  |  | 
Cc1ccc2nc(-c3ccc4nc(-c5ccc(NC(=O)c6ccc(CNC(=O)OCC7c8ccccc8-c8ccccc87)cc6)cc5)sc4c3)sc2c1S(=O)(=O)O.N [Compound 41] | 4.4 ± 0.3 µM |  | 4 µM |  |  | 
